Measurements published in US20260283124A1, “NON-HUMAN ANIMAL, KIT, AND METHOD FOR PRODUCING REPLACEMENT ORGAN” (THE JIKEI UNIVERSITY, priority 2023, published 2026).
Entries after “also recorded” stand apart in the source; their conditions may differ. Where two headings read alike, the source gives them in different places.

Key:
[1] = tested on: Six2-positive nephron progenitor cells; assay: Intraperitoneal administration to neonatal Six2-iCaspase9-tdTomato mice, kidneys collected 48 hours later; format: in vivo, mouse
Procedure: AP20187 (CID) was intraperitoneally administered to neonatal Six2-iCaspase9-tdTomato mice prepared in Experimental Example 1, and the […] mouse kidneys were collected 48 hours later.

NPCs [2] = assay: Administration to heterozygous neonatal mice, CID alone or combined with AT406; format: in vivo, mouse
[3] = tested on: Six2-positive nephron progenitor cells; assay: TUNEL staining of organ-cultured E13 fetal kidney of Six2-iCaspase9-tdTomato mouse; format: cell-based; conditions: 100 nM CID, 12 hours after administration
Procedure: The kidney was excised from an E13 fetus of the Six2-iCaspase9-tdTomato mouse prepared in Experimental Example 1, and organ culture was performed on a Transwell. Apoptosis was evaluated by TUNEL staining after collection at 12 and 18 hours following the administration of 100 nM CID to the culture medium.

NPCs [4] = assay: Culture of fetal kidney of single allele knock-in (heterozygous) mice with CID and/or AT406; format: cell-based, mouse
NPCs [5] = assay: Intraperitoneal administration to pregnant dam carrying homozygous fetuses; format: in vivo, mouse
Excerpt: The CID was intraperitoneally administered to a pregnant dam carrying homozygous fetuses (see FIG. 15). As a result, it was confirmed that the kidney size of the neonates (PO) was reduced and the cap mesenchyme structure, which constitutes the nephrogenic niche formed by NPCs, was disrupted (see FIG. 16). […] Furthermore, a decrease in the number of glomeruli was also confirmed (see FIG. 18).

glomeruli = assay: Nephron replacement: rat renal progenitor cells injected into homozygous fetal kidney, CID-added culture medium, then transplanted into immunodeficient mice; format: in vivo, mouse; conditions: rat RPCs injected, day 14 after transplant into immunodeficient mice
Procedure: It was verified whether or not the replacement of nephron could be induced by transplanting the exogenous NPC at the same time as the removal of the NPC of the fetal kidney (see FIG. 20). In a case where renal progenitor cells (RPCs) of rats were injected into a homozygous fetal kidney and cultured in a CID-added culture medium, it was confirmed that at the time point of day 4, the renal progenitor cells adhered to the ureteral bud of the host and formed a chimeric cap mesenchyme (see FIG. 21). In addition, in a case where the cells were transplanted into immunodeficient mice after the cell injection and allowed to develop in vivo, it was confirmed that at the time point of day 14, the rat-derived cells differentiated into glomeruli and renal tubules, and approximately 80% of the glomeruli were replaced with rat-derived cells. A rat distal tubule connected to the collecting duct derived from the fetal mouse kidney was also confirmed (see FIG. 22).

NPCs [6] = assay: Culture of kidneys of E13.5 fetuses of both allele knock-in (homozygous) mice with CID; format: cell-based, mouse; conditions: 100 nM of CID, homozygous E13.5 fetal kidney culture
Procedure: In a case where the kidneys of E13.5 fetuses of both allele knock-in (homozygous) mice were collected, CID was added thereto, and the kidneys were cultured, it was confirmed that 90% or more of NPCs were removed by adding 100 nM of CID (see FIG. 10).

nephron progenitor cells = assay: Kidney organoid from nephron progenitor cells of Six2-iCaspase9-tdTomato mouse, CID administration; format: cell-based; conditions: with CID administration
Procedure: Nephron progenitor cells were isolated from the Six2-iCaspase9-tdTomato mouse prepared in Experimental Example 1, and a kidney organoid was prepared by three-dimensional culture. AP20187 (hereinafter, referred to as CID) was administered to the kidney organoid.

[7] = tested on: Six2-positive nephron progenitor cells; assay: Organ culture on Transwell of E11 fetal kidney of Six2-iCaspase9-tdTomato mouse with CID in medium; format: cell-based; conditions: for Expression of tdTomato fluorescence in nephron progenitor cells: second day after administration
Procedure: The kidney was excised from an E11 fetus of the Six2-iCaspase9-tdTomato mouse prepared in Experimental Example 1, and organ culture was performed on a Transwell. In the group in which AP20187 (CID) was administered to the culture medium, the expression of tdTomato fluorescence in nephron progenitor cells was reduced on the second day after administration (see FIG. 4).

NPCs [8] = assay: Subcutaneous administration to homozygous neonatal mice; format: in vivo, mouse
[9] = administration at E13.5, animal at 1 month of age
[10] = intraperitoneal to pregnant dam, homozygous fetuses

## CC[C@H](C(=O)N1CCCC[C@H]1C(=O)O[C@H](CCc1ccc(OC)c(OC)c1)c1cccc(OCC(=O)NCC(CNC(=O)COc2cccc([C@@H](CCc3ccc(OC)c(OC)c3)OC(=O)[C@@H]3CCCCN3C(=O)[C@@H](CC)c3cc(OC)c(OC)c(OC)c3)c2)CN(C)C)c1)c1cc(OC)c(OC)c(OC)c1 [CID, AP20187]
[1]
  Nephron progenitor cell marker Six2 (immunostaining) in kidney: disappeared; also recorded: removal of Six2-positive nephron progenitor cells in the neonatal kidney was observed
  Nephron progenitor cells (red, tdTomato fluorescence) in kidney: disappeared due to apoptosis
[1]; listed as AP20187
  Nephron progenitor cells (red, tdTomato fluorescence) in kidney: removal of Six2-positive nephron progenitor cells in the neonatal kidney was observed
NPCs [2]
  NPC removal: NPC removal does not occur
[3]
  Apoptosis by TUNEL staining, co-localization with Six2-positive nephron progenitor cells: TUNEL positivity was observed
NPCs [4]; 100 nM of CID alone, heterozygous fetal kidney culture
  NPC removal: NPC removal was not confirmed
NPCs [5]; administration at E11.5
  Survival of animals after birth: died due to severe renal failure
NPCs [5]; administration at E13.5
  Survival of animals after birth: survival of animals was confirmed
NPCs [5]; [9]
  Serum urea nitrogen (BUN) compared with the control: significantly increased
  Urinary albumin-to-creatinine ratio (ACR) compared with the control: significantly increased
NPCs [5]; [10]
  Cap mesenchyme structure (nephrogenic niche formed by NPCs): disrupted
  Kidney size of the neonates (P0): reduced
  NPCs by immunostaining: disappearance of the NPCs was confirmed
  Number of glomeruli: decrease
glomeruli
  Glomeruli replaced with rat-derived cells: approximately 80%
NPCs [6]
  NPCs removed: ≥ 90%
Nephron progenitor cells
  Apoptosis of nephron progenitor cells (immunostained image): subjected to apoptosis; also recorded: Induced cell death of nephron progenitor cells was observed
[7]; day 3
  Removal of Six2-positive nephron progenitor cells (immunostaining): removal of Six2-positive nephron progenitor cells was confirmed
[7]
  Expression of tdTomato fluorescence in nephron progenitor cells: removal of nephron progenitor cells
[7]; listed as AP20187
  Expression of tdTomato fluorescence in nephron progenitor cells: reduced
NPCs [8]
  NPC removal: NPC removal was confirmed

## CN[C@@H](C)C(=O)N[C@H]1CN(C(=O)CC(C)C)CC[C@H]2CC[C@@H](C(=O)NC(c3ccccc3)c3ccccc3)N2C1=O [AT406]
NPCs [4]; single administration of AT406, heterozygous fetal kidney culture
  NPC removal: NPC removal did not occur
